These results are taken from ChEMBL document CHEMBL4340570, “Design, synthesis, and biological evaluation of novel 4-oxobenzo[d]1,2,3-triazin-benzylpyridinum derivatives as potent anti-Alzheimer agents” (Bioorg Med Chem, 2019).

The source made the active and inactive calls. No cut-off for these calls is given here.

For assay [1], the target named is T1, Acetylcholinesterase (Electrophorus electricus, UniProt O42275). Description: Inhibition of electric eel AChE pre-incubated for 5 mins before acetylthiocholine iodide substrate addition and measured after 15 mins by Ellman's method.
In the next assay the target is Cholinesterase (Equus caballus, UniProt P81908). Description: Inhibition of equine serum BuChE pre-incubated for 5 mins before butyrylthiocholine iodide substrate addition and measured after 15 mins by Ellman's method.
Assay [2] addresses T1, Acetylcholinesterase. Nature of the assay: Mixed type inhibition of electric eel AChE pre-incubated for 5 mins before acetylthiocholine iodide substrate addition and measured after 15 mins by modified Ellman's method baaed Lineweaver-Burk plot analysis.
Assay [3] deals with PC-12. Nature of the assay: Neuroprotective activity in rat PC12 cells assessed as protection against H2O2-induced cytotoxicity at 100 uM pre-incubated for 3 hrs before H2O2 addition and measured after 12 hrs by MTT assay. The class given is functional, cell-based.
Assay [4] has as its target Beta-secretase 1 (Homo sapiens) (UniProt P56817). Description: Inhibition of recombinant human BACE1 (1 to 460 residues) expressed in baculovirus-infected insect cells at 10 uM using Rh-EVNLDAEFK-quencher as substrate measured after 90 mins by FRET assay relative to control.
Assay [5] has the same target. Description: Inhibition of recombinant human BACE1 (1 to 460 residues) expressed in baculovirus-infected insect cells at 50 uM using Rh-EVNLDAEFK-quencher as substrate measured after 90 mins by FRET assay relative to control.
The subject of assay [6] is PC-12. Nature of the assay: Neuroprotective activity in rat PC12 cells assessed as protection against H2O2-induced cytotoxicity at 1 uM pre-incubated for 3 hrs before H2O2 addition and measured after 12 hrs by MTT assay. Format: functional, cell-based.
Assay [7] has as its system PC-12. Nature of the assay: Neuroprotective activity in rat PC12 cells assessed as protection against H2O2-induced cytotoxicity at 10 uM pre-incubated for 3 hrs before H2O2 addition and measured after 12 hrs by MTT assay. Format: functional, cell-based.

T1 sequence (O42275 whole entry): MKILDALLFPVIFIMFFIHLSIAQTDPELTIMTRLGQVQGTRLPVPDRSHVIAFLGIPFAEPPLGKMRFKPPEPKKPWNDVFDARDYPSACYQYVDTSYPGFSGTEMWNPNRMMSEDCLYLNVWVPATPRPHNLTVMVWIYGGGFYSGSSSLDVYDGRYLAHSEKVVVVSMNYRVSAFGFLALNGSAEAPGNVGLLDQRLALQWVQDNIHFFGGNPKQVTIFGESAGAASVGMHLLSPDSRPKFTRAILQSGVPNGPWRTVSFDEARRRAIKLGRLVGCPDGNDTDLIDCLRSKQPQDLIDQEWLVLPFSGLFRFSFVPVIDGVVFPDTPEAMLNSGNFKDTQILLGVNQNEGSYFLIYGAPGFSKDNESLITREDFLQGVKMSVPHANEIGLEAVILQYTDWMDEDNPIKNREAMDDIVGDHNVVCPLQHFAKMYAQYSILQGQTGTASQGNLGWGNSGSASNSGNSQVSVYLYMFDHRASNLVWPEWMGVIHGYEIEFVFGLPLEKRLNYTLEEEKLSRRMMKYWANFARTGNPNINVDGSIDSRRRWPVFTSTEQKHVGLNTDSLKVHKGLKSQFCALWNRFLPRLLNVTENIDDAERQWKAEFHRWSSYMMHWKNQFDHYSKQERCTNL
Sequence of Cholinesterase (P81908 whole entry): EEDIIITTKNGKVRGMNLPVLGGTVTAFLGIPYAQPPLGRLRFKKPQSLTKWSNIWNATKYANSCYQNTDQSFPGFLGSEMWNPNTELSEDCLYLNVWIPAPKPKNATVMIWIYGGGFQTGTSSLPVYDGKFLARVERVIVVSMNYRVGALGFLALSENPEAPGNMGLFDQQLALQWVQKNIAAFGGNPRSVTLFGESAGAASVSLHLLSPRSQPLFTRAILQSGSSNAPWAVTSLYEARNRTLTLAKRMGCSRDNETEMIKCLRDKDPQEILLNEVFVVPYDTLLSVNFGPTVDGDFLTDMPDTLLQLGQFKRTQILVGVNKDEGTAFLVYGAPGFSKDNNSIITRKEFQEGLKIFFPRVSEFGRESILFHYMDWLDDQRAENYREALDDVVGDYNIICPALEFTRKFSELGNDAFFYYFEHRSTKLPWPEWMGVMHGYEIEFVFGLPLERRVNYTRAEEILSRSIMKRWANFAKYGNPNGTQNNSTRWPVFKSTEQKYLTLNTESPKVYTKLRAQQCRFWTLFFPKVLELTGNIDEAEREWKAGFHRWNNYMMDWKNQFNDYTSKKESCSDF
Sequence of Beta-secretase 1 (Homo sapiens) (P56817 whole entry, the tested form may be a part): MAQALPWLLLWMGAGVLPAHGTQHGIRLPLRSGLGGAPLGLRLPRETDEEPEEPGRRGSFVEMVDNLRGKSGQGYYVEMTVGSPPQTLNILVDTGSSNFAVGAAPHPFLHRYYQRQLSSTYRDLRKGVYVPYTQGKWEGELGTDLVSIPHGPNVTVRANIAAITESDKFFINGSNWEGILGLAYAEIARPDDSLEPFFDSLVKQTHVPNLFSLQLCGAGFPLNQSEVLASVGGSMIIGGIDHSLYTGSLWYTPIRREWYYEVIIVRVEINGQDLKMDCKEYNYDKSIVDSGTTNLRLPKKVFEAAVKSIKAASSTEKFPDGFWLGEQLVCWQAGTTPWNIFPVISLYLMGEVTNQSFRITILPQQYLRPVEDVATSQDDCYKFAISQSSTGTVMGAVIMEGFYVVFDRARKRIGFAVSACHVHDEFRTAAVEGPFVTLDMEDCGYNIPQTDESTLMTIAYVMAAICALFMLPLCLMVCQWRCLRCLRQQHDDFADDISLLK

As to `O=c1c2ccccc2nnn1Cc1ccc[n+](Cc2cccc(F)c2)c1`, the IC50 came out at 170 nM against Acetylcholinesterase [1] and 27800 nM on Cholinesterase.

In the case of `O=c1c2ccccc2nnn1Cc1ccc[n+](Cc2ccccc2[N+](=O)[O-])c1`, the IC50 against Acetylcholinesterase [1] was determined as 100 nM; against Cholinesterase, 17500 nM. Also, at Acetylcholinesterase [2], the Ki came to 17 nM. Further, in the assay on PC-12 [3], the outcome was Active. For the same compound, the inhibition in assay [4] was 37%; in assay [5], 61.2%.

As for `O=c1c2ccccc2nnn1Cc1cc[n+](Cc2ccc(F)cc2)cc1`, the figures for the IC50 against Acetylcholinesterase [1] and on Cholinesterase were 1640 nM and 70700 nM, respectively.

As for `O=c1c2ccccc2nnn1Cc1ccc[n+](Cc2ccc(Br)cc2)c1`, the values for the IC50 on Acetylcholinesterase [1] and on Cholinesterase were 840 nM and 5800 nM, respectively.

With `O=c1c2ccccc2nnn1Cc1ccc[n+](Cc2ccccc2)c1`, the IC50 on Acetylcholinesterase [1] came out at 170 nM; on Cholinesterase, 31200 nM.

On to `Cc1ccccc1C[n+]1cccc(Cn2nnc3ccccc3c2=O)c1`, for which the figures for the IC50 at Acetylcholinesterase [1] and against Cholinesterase were 200 nM and 13700 nM, respectively.

Take `O=c1c2ccccc2nnn1Cc1cc[n+](Cc2ccccc2[N+](=O)[O-])cc1`: the IC50 at Acetylcholinesterase [1] was found to be 1300 nM; on Cholinesterase it was 18200 nM.

On to `O=c1c2ccccc2nnn1Cc1ccc[n+](Cc2c(Cl)cccc2Cl)c1`, for which the IC50 is 730 nM against Acetylcholinesterase [1] and 21600 nM against Cholinesterase.

For `O=c1c2ccccc2nnn1Cc1ccc[n+](Cc2ccc([N+](=O)[O-])cc2)c1`, the results for the half-inhibitory concentration (IC50) at Acetylcholinesterase [1] and against Cholinesterase were 160 nM and 17200 nM, respectively.

Regarding `O=c1c2ccccc2nnn1Cc1ccc[n+](Cc2cccc(Br)c2)c1`, the 50% inhibitory concentration (IC50) worked out at 300 nM on Acetylcholinesterase [1] and 14700 nM against Cholinesterase.

With `O=c1c2ccccc2nnn1Cc1ccc[n+](Cc2ccc(F)cc2)c1`, the IC50 against Acetylcholinesterase [1] stood at 150 nM; against Cholinesterase, 23800 nM. Moreover, in the assay on PC-12 [6], the outcome was Active.

For the compound `O=c1c2ccccc2nnn1Cc1cc[n+](Cc2ccccc2)cc1`, the IC50 at Acetylcholinesterase [1] was found to be 1340 nM; against Cholinesterase it was 75200 nM.

`O=c1c(O)c(-c2ccc(O)c(O)c2)oc2cc(O)cc(O)c12`: the result with PC-12 [7] was Active.

Take `O=c1c2ccccc2nnn1Cc1cc[n+](Cc2ccccc2Cl)cc1`: the IC50 is 1370 nM at Acetylcholinesterase [1] and 55000 nM at Cholinesterase.

`O=c1c2ccccc2nnn1Cc1ccc[n+](Cc2ccccc2F)c1`: the IC50 was found to be 290 nM on Acetylcholinesterase [1] and 23900 nM on Cholinesterase.

`O=c1c2ccccc2nnn1Cc1cc[n+](Cc2ccc(Br)cc2)cc1`: the results for the IC50 on Acetylcholinesterase [1] and against Cholinesterase were 1180 nM and 51800 nM, respectively.

On to `O=c1c2ccccc2nnn1Cc1cc[n+](Cc2ccccc2F)cc1`, for which the results for the IC50 on Acetylcholinesterase [1] and against Cholinesterase were 1680 nM and 64600 nM, respectively.

`O=c1c2ccccc2nnn1Cc1ccc[n+](Cc2ccccc2Br)c1`: the IC50 against Acetylcholinesterase [1] was found to be 150 nM; at Cholinesterase, 16800 nM. Also, the outcome in the assay with PC-12 [3], in the assay on PC-12 [6] and in the assay with PC-12 [7] was Active.
